The values below come from US20240174690A1, “ANNULATED 2-AMINO-3-CYANO THIOPHENES AND DERIVATIVES FOR THE TREATMENT OF CANCER” (BOEHRINGER INGELHEIM INTERNATIONAL GMBH, priority 2021, published 2024).

Data set [1] concerns KRAS G12C-dependent Ba/F3 cells. Put plainly: Ba/F3 proliferation assay, KRAS G12C. In kind it is cell-based. The settings on record: Mus musculus, BaF3, 72 h, AlamarBlue. Put shortly: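 Ba/F3 cells retrovirally transduced with KRAS G12 mutants, puromycin-selected and grown without IL-3, so proliferation depends on the mutant KRAS. Compounds tested in technical duplicates; viability read by AlamarBlue fluorescence, with curve fitting for potency.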
For orientation: Alamar Blue is a resazurin reagent that responds to reducing activity.

The test system of a further data set is NCI-H358 cells. The experiment in a line: NCI-H358 CTG proliferation assay (120 h) (NSCLC, G12C). Format: cell-based, human. The settings on record: Homo sapiens. Put shortly: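 NCI-H358 cells (KRAS G12C) were seeded at 2000/well (assay 1) or 200/well (assay 2) in RPMI-1640 + 10% FCS and dosed with a logarithmic series, DMSO-normalized. After 120 h, viability was read by CellTiter-Glo luminescence as percent of DMSO control, with a T0 read at dosing. IC50 came from a four-parameter fit.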

In a further data set the test system is SAS cells. Put plainly: SAS CTG proliferation assay (120 h) (HNSCC, wt amplified). Format: cell-based. A digest of the protocol: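 SAS cells plated at 300 per well in DMEM:F12 with 10% FCS and left overnight, then given compounds acoustically. After 120 h exposure, viability read by CellTiter-Glo as percent of DMSO control. IC50 from four-parameter non-linear regression.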

A short description of data set [2]: Metabolic (microsomal) stability assay, human liver microsomes (HLM). In kind it is in vitro ADME. The settings on record: predicted clearance as percent of liver blood flow, 1 μM. A digest of the protocol: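 LC-MS/MS tracked parent disappearance at 0, 5, 15, 30 and 60 min in NADPH-initiated incubations with 1 mg/mL human microsomal protein and 1 μM compound at 37°C, pH 7.5. First-order fits gave intrinsic clearance, which was scaled up and reported as % QH. NADPH-free controls were also run.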

The nature of data set [3]: Solubility measurement (DMSO solution method), McIlvaine buffer pH 4.5 or 6.8. Format: physicochemical. The settings on record: aqueous buffer, kinetic from dmso stock, DMSO stock diluted to 250 μM, 24 h shaking at ambient temperature. A digest of the protocol:
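DMSO stock diluted into McIlvaine buffer, pH 4.5 or 6.8, to 250 µM final, shaken 24 h at ambient temperature. Precipitate removed by filtration; filtrate quantified by LC-UV against a fully dissolved reference in acetonitrile/water 1:1.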

Where [4] appears, read: assay 2, CTG, read-out: H358 (assay 2) IC50.
Where [5] appears, read: McIlvaine buffer pH 4.5, read-out: solubility pH 4.5.
Where [6] appears, read: McIlvaine buffer pH 6.8, read-out: solubility pH 6.8.

pIC50: −log10 of the molar value. ≈ marks a conversion by molar mass, not a printed value. Like-named read-outs stand apart in the source and are kept apart here.

What is called pIC50 is the IC50 on a negative log10 scale, so that one unit is a factor of ten. The term solubility denotes how much of the substance goes into solution per volume. For the molecule `C[C@@H]1CN(c2cc(O[C@@H](C)[C@@H]3C[C@@H](F)CN3C)nc(-c3noc4c3CCC[C@@]43CCCc4sc(N)c(C#N)c43)n2)CC2(CC2)N1` [II-17], the pIC50 in data set [1] was 6.43; with NCI-H358 cells (setting [4]), 6.87; in the data set with SAS cells, 5.99. For the same molecule, the “HLM QH” value in data set [2] is recorded as 63%. The results for the solubility at 24 h in data set [3] (setting [5]) and in data set [3] (setting [6]) were > 147 µg/mL and 20 µg/mL (≈ 31.6 µM), respectively.
Consider `C[C@H](Oc1cc(N2CC[C@@H](N(C)C)C2)nc(-c2noc3c2CCC[C@@]32CCCc3sc(N)c(C#N)c32)n1)[C@@H]1CCCN1C` [II-47], for which the pIC50 was 6.62 in data set [1], 5.69 in the data set with NCI-H358 cells (setting [4]) and 5.58 in the data set on SAS cells. Further, in data set [2], the “HLM QH” value is <24%. For the same molecule, the solubility at 24 h in data set [3] (setting [5]) is > 162 µg/mL; in data set [3] (setting [6]) it was > 145 µg/mL.
`CNC(=O)c1ccn(-c2cc(O[C@@H](C)[C@@H]3CCCN3C)nc(-c3noc4c3CCC[C@@]43CCCc4sc(N)c(C#N)c43)n2)n1` [II-20]: the pIC50 in data set [1] is 8.70; with NCI-H358 cells (assay 1, CTG, read-out: H358 (assay 1) IC50), 8.22; in the data set with NCI-H358 cells (setting [4]), 8.70; with SAS cells it was 7.07. Besides, the “HLM QH” value in data set [2] is recorded as <24%. Also, the results for the solubility at 24 h in data set [3] (setting [5]) and in data set [3] (setting [6]) were 83 µg/mL (≈ 135 µM) and 33 µg/mL (≈ 53.8 µM), respectively.
